# pIC50, pKi: −log10 of the molar value.
# What was measured:
# [1] = target: T1, Cysteinyl leukotriene receptor 1 (Cavia porcellus, UniProt Q2NNR5); test: Inhibition of [3H]LTD4 binding to LTD4 receptor in guinea pig lung membranes; type: cell membranes, Membrane
# T1 sequence (Q2NNR5 whole entry): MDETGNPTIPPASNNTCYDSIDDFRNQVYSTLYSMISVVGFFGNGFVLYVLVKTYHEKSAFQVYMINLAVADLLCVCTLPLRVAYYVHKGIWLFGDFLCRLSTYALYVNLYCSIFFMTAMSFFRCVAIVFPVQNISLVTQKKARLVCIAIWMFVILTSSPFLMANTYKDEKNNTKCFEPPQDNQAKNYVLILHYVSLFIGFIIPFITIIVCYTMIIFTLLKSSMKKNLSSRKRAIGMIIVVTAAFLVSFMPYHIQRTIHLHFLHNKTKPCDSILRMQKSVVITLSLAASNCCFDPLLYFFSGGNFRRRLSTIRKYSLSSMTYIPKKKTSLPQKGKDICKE
# [2] = target: T2, Polyunsaturated fatty acid 5-lipoxygenase (Rattus norvegicus, UniProt P12527); test: Inhibition of 5-Lipoxygenase (5-LO) in rat basophilic leukemia cells; type: cell-based, RBL-1
# T2 sequence (P12527 whole entry): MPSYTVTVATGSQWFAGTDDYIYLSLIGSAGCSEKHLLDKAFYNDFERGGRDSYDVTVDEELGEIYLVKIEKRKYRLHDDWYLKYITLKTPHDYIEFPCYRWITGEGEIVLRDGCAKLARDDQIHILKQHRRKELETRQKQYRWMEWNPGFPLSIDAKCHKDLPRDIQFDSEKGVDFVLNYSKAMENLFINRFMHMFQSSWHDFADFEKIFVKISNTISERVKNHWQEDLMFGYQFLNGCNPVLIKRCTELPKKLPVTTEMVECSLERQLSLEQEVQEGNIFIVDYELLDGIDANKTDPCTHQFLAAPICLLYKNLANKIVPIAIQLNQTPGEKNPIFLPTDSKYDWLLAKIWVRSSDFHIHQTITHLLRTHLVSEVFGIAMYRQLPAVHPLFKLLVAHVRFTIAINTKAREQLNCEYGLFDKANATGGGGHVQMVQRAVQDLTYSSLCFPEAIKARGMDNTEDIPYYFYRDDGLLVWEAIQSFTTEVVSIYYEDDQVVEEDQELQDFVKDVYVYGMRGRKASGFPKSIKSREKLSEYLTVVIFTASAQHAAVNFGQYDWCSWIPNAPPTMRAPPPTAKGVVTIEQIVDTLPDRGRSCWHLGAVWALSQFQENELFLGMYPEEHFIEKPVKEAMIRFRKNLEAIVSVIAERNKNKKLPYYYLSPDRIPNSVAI
# Cavia porcellus [3] = test: Inhibitory activity against LTD4 challenged pulmonary function test by oral administration; type: functional
# Cavia porcellus [4] = test: Inhibitory activity against LTD4 challenged pulmonary function test by oral administration (2 hr preantigen); type: functional
# Cavia porcellus [5] = test: Dose required to block the airway obstruction induced by aerosolized antigen by oral administration; type: functional
pKi [1],pIC50 [2],Structure (SMILES),ED50 (Cavia porcellus [3]) [mg/kg],ED50 (Cavia porcellus [4]) [mg/kg],ED50 (Cavia porcellus [5]) [mg/kg]
5.82,,O[C@@H]1c2cc(OCc3ccc4ccccc4n3)ccc2CC[C@H]1Cc1ccccc1,,,
5.10,,CCCCCC(O)c1cccc(OCc2ccc3ccccc3n2)c1 (stereo not drawn) [REV-5901],,,
4.62,5.09,O=C(O)c1cccc(C[C@@H]2COc3ccc(OCc4nc5cc(F)ccc5s4)cc3[C@@H]2O)c1,0.49,0.43,10.8
6.19,5.72,O[C@@H]1c2cc(OCc3ccc4ccccc4n3)ccc2OC[C@@H]1Cc1cccnc1,3,20,16
5.17,,CCCCC1CCc2ccc(OCc3ccc4ccccc4n3)cc2C1O (stereo not drawn),,,
